Test system: all types and subtypes of influenza tested
Format: biochemical, influenza virus
Conditions: peramivir only 2019/20

## CCC(CC)[C@H](NC(C)=O)[C@@H]1[C@H](O)[C@@H](C(=O)O)C[C@H]1N=C(N)N [Peramivir, peramivir]
  activity of NAI in the neuraminidase inhibition assay: most potent inhibitor
